The source of these data is ChEMBL document CHEMBL1137913, “Piperidine-containing beta-arylpropionic acids as potent antagonists of alphavbeta3/alphavbeta5 integrins” (Bioorg Med Chem Lett, 2004).

Data set [1] is described as follows: AUC was determined after peroral administration at 10 mg/kg. The format is ADME, organism-based. Further details: dose 10 mg/kg, route oral. The following applies: rat, plasma, po.
In data set [2] the target is T1, Integrin alpha-IIb/beta-3 (Homo sapiens, UniProt P05106+P08514). In words: Inhibition of human Biotinylated Fg binding to immobilized Alpha II beta-3. The format is protein-complex assay.
Another data set concerns the target Integrin alpha-V/beta-3 (Homo sapiens, UniProt P05106+P06756). The experiment in a line: Inhibition of human vitronectin binding to immobilized Alpha v beta-3. The class given is protein-complex assay.
Data set [3] is described as follows: Oral bioavailability (dose in 5% dextrose in water at pH 2). The class given is ADME, organism-based. The note with it: rat, in vivo.
The nature of data set [4]: Clearance was determined after intravenous administration at 2 mg/kg. The class given is ADME, organism-based. Also noted: dose 2 mg/kg, route intravenous. The note with it: rat, in vivo.
A short description of data set [5]: Half life was determined after peroral administration at 10 mg/kg. The class given is ADME, organism-based. Further details: dose 10 mg/kg, route oral. The following applies: rat, in vivo, po.
Data set [6] in a line: Inhibition of human Biotinylated Fg binding to immobilized Alpha II biotinylated Fg beta-5.
Data set [7] addresses T1, Integrin alpha-IIb/beta-3. In words: Inhibition of human Biotinylated Fg binding to immobilized Alpha IIb beta-3 (N=1). The format is protein-complex assay.

T1 sequence (P05106 27-788 limits assumed): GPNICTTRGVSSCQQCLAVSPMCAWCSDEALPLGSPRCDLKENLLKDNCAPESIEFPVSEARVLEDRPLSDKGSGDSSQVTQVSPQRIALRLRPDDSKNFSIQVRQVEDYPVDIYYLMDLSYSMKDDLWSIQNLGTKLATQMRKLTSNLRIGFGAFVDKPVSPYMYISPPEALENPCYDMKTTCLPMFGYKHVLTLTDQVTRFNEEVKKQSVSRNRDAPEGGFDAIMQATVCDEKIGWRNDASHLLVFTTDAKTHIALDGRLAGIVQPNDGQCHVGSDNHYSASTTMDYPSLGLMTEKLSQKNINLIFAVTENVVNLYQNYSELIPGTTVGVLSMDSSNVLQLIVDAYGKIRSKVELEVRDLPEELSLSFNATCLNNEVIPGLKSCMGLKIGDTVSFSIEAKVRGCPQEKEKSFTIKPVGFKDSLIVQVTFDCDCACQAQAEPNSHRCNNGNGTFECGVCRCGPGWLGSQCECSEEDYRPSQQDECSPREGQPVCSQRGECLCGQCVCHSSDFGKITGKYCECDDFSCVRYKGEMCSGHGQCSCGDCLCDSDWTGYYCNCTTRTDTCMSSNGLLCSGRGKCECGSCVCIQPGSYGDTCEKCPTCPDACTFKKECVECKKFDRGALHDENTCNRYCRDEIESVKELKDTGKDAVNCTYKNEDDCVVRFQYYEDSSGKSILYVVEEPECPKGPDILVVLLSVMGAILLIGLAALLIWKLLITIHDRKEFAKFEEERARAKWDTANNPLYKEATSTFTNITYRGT
T1 sequence (P08514 32-887 limits assumed): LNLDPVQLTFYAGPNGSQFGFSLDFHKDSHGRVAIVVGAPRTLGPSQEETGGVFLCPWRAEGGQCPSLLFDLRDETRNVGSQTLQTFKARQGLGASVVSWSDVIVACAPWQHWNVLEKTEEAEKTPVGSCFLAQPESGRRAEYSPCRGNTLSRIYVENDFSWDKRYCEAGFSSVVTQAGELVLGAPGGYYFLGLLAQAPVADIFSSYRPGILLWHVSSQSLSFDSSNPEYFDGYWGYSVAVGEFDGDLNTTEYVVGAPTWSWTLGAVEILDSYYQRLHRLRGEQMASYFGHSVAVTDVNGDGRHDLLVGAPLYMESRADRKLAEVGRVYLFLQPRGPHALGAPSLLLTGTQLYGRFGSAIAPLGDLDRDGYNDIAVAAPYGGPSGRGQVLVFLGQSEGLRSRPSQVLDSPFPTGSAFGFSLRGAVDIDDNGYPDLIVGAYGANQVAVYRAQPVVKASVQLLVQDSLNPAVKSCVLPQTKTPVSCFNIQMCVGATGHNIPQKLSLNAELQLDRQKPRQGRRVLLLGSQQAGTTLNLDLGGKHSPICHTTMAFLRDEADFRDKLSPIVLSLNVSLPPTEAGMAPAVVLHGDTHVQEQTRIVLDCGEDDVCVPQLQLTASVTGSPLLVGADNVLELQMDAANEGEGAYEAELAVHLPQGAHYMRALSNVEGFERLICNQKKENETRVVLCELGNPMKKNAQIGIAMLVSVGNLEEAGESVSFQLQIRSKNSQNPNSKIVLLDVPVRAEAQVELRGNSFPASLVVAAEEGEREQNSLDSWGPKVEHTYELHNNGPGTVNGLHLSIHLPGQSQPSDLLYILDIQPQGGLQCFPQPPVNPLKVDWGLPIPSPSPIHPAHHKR
T1 sequence (P08514 891-1039 limits assumed): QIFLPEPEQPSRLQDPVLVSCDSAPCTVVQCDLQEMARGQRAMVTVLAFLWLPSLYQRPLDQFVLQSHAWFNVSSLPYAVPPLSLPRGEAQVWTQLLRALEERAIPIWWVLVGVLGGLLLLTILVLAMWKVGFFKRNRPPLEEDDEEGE
Integrin alpha-V/beta-3, sequence (P05106 27-788 limits assumed): as the sequence (P05106 27-788 limits assumed) above
Integrin alpha-V/beta-3, sequence (P06756 31-889 limits assumed): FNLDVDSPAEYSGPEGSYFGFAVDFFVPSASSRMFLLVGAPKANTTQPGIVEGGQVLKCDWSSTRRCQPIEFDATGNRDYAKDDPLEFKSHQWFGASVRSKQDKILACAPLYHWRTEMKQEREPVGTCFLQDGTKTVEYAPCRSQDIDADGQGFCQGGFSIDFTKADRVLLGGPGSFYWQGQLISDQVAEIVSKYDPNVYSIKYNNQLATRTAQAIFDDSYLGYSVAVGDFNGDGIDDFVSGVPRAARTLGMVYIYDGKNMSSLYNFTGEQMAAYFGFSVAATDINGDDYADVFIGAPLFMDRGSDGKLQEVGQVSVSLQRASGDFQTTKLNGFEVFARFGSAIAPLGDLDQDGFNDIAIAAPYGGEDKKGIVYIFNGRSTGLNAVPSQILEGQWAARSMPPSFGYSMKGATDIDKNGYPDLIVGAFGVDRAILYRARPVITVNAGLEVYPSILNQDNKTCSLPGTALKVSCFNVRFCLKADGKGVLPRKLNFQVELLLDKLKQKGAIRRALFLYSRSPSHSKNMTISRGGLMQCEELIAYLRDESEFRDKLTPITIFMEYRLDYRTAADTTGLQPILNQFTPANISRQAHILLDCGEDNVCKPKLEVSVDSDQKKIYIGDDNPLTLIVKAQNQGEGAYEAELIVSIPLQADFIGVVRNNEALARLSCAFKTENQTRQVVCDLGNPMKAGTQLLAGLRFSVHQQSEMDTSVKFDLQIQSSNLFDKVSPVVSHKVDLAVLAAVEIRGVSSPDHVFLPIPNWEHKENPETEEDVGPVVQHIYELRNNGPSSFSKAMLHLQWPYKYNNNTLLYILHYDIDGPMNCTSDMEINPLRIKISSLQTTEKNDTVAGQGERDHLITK
Integrin alpha-V/beta-3, sequence (P06756 891-1048 limits assumed): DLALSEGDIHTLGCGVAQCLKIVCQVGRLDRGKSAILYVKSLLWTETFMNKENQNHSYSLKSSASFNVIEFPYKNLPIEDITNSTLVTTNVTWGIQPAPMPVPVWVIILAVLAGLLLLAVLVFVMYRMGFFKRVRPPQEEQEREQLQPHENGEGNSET

Broadly, the AUC is concentration integrated over time. A high value points to high exposure. As usually defined, the IC50 is the point on the concentration scale where inhibition reaches its midpoint. Usually bioavailability stands for dose-corrected exposure relative to a reference, in per cent. The low end stands for little systemic uptake, the high end for much systemic uptake. By half-life is commonly meant the time needed for the level to fall by half in the phase considered. High values mean slow decline, low ones rapid decline. In the case of `O=C(O)CC(NC(=O)C1CCN(C(=O)CCc2ccc3c(n2)NCCC3)CC1)c1ccc2c(c1)OCO2` (stereo unspecified), the AUC in data set [1] turned out to be 79 µM·h. For the same compound, the IC50 was found to be 15.7 µM in data set [2] and 0.0217 µM on Integrin alpha-V/beta-3. In data set [3], the bioavailability amounted to 2.4%. For the same compound, the CI in data set [4] was determined as 0.09 mg/kg/µM/h. Further, the half-life in data set [5] was 6.7 h.

On to `O=C(O)CC(NC(=O)C1CCN(C(=O)c2cccc(NC3=CCCCN3)c2)CC1)c1ccc2c(c1)OCO2` (stereo unspecified), for which the IC50 in data set [2] is 0.209 µM; on Integrin alpha-V/beta-3, 0.0104 µM.

For the compound `O=C(O)CC(CC1CCN(C(=O)CCc2ccc3c(n2)NCCC3)CC1)c1cccc(F)c1` (stereo unspecified), the AUC in data set [1] is 2.7 µM·h. In addition, the results for the IC50 in data set [2] and in data set [6] were greater than 10 µM and 0.0028 µM, respectively. Further, the bioavailability in data set [3] was determined as 14%. In data set [4], the CI amounted to 0.5 mg/kg/µM/h. The same compound showed a half-life in data set [5] of 1.7 h.

As to `O=C(O)CC(CC1CCN(C(=O)CCCc2ccc3c(n2)NCCC3)CC1)c1ccc2c(c1)OCO2` (stereo unspecified), the IC50 in data set [2] was determined as 4.26 µM; in data set [6] it was 0.22 µM; at Integrin alpha-V/beta-3 it was 0.0206 µM.

In data set [1], `O=C(O)CC(CCC1CCN(C(=O)CCCNc2ccccn2)CC1)c1ccc2c(c1)OCO2` (stereo unspecified) gave an AUC of 142 µM·h. Moreover, the IC50 turned out to be 10.9 µM in data set [2] and 0.233 µM at Integrin alpha-V/beta-3. The bioavailability in data set [3] stood at 96%. Moreover, in data set [4], the CI came to 0.2 mg/kg/µM/h. In data set [5], this compound gave a half-life of 6.6 h.

In the case of `O=C(O)CC(CCC1CCN(C(=O)Cc2ccc3c(n2)NCCC3)CC1)c1ccc2c(c1)OCO2` (stereo unspecified), the IC50 in data set [2] is greater than 10 µM; in data set [6], 0.405 µM; at Integrin alpha-V/beta-3, 0.075 µM.

Compound `O=C(O)CC(CCC1CCN(C(=O)CCc2ccc3c(n2)NCCC3)CC1)c1ccc2c(c1)OCO2` (stereo unspecified) yielded an AUC in data set [1] of 304 µM·h. The compound also came in with a 50% inhibitory concentration (IC50) in data set [2] of 4.36 µM. In data set [3], this compound returned a bioavailability of 88%. Further, the CI in data set [4] turned out to be 0.09 mg/kg/µM/h. Further, the half-life in data set [5] was 3 h.

With `O=C(O)CC(c1ccc2c(c1)OCO2)C1CCN(C(=O)Cc2ccc3c(n2)NCCC3)CC1` (stereo unspecified), the IC50 in data set [7] is greater than 10 µM; in data set [6] it was 0.775 µM.

`Cc1ncc(C(CC(=O)O)CC2CCN(C(=O)CCc3ccc4c(n3)NCCC4)CC2)cn1` (stereo unspecified) gave an AUC in data set [1] of less than 0.1 µM·h. In data set [3], this compound showed a bioavailability of 4%. This compound returned a CI in data set [4] of 10.4 mg/kg/µM/h. Moreover, the half-life in data set [5] was 2.6 h.

`O=C(O)CC(c1ccc2c(c1)OCO2)C1CCN(C(=O)CCCc2ccc3c(n2)NCCC3)CC1` (stereo unspecified) displayed an IC50 in data set [6] of 0.0335 µM.

In data set [1], `O=C(O)CC(CC1CCN(C(=O)CCc2ccc3c(n2)NCCC3)CC1)c1ccc2c(c1)OCO2` (stereo unspecified) yielded an AUC of 97 µM·h. This compound also had an IC50 in data set [6] of 0.0023 µM. The bioavailability in data set [3] stood at 31%. Besides, the CI in data set [4] came to 0.1 mg/kg/µM/h. This compound gave a half-life in data set [5] of 2.1 h.

On to `O=C(O)CC(CC1CCN(C(=O)CCc2ccc3c(n2)NCCC3)CC1)c1ccc2ccccc2c1` (stereo unspecified), for which the AUC in data set [1] stood at 286 µM·h. Further, the concentration for half-maximal inhibition (IC50) was greater than 10 µM in data set [2] and 0.0245 µM in data set [6]. The bioavailability in data set [3] was determined as 47%. In data set [4], this compound came in with a CI of 0.02 mg/kg/µM/h. In data set [5], this compound gave a half-life of 5.65 h.

On to `N/C(=N\Cc1ccncc1)Nc1cccc(C(=O)N2CCC(C(=O)NC(CC(=O)O)c3ccc4c(c3)OCO4)CC2)c1` (stereo unspecified), for which the half-maximal inhibitory concentration (IC50) was 0.0564 µM in data set [2] and 0.0253 µM on Integrin alpha-V/beta-3.

Consider `O=C(O)CC(NC(=O)C1CCN(C(=O)c2cccc(NC3=CCC(O)CN3)c2)CC1)c1cnc2ccccc2c1` (stereo unspecified), for which the concentration for half-maximal inhibition (IC50) in data set [2] came out at 0.177 µM; on Integrin alpha-V/beta-3, 0.0055 µM.

Take `O=C(O)CC(CC1CCN(C(=O)CCc2ccc3c(n2)NCCC3)CC1)c1cccnc1` (stereo unspecified): in data set [6], the concentration for half-maximal inhibition (IC50) worked out at 0.0017 µM. The same compound returned a bioavailability in data set [3] of 0%. Further, the CI in data set [4] came to 1.1 mg/kg/µM/h.

For `O=C(O)CC(c1ccc2c(c1)OCO2)C1CCN(C(=O)CCc2ccc3c(n2)NCCC3)CC1` (stereo unspecified), the results for the IC50 (in data set [2]; in data set [6]; on Integrin alpha-V/beta-3) were 6.19 µM, 0.0957 µM and 0.0281 µM, respectively.

In the case of `O=C(O)CC(NC(=O)C1CCN(C(=O)CCCNC2=NCCN2)CC1)c1cnc2ccccc2c1` (stereo unspecified), the IC50 amounted to 0.0793 µM in data set [2] and 0.0028 µM at Integrin alpha-V/beta-3.

Take `O=C(O)CC(NC(=O)C1CCN(C(=O)CCc2ccc3c(n2)NCCC3)CC1)c1cnc2ccccc2c1` (stereo unspecified): the values for the IC50 (in data set [2]; on Integrin alpha-V/beta-3) were 2.85 µM and 0.0026 µM, respectively.

For `O=C(O)C[C@H](NC(=O)[C@@H]1CCCN(C(=O)CCC2CCNCC2)C1)c1cccnc1` [ELAROFIBAN], the values for the concentration for half-maximal inhibition (IC50) (in data set [2]; at Integrin alpha-V/beta-3) were 0.00015 µM and greater than 50 µM, respectively.

`O=C(O)CC(CCC1CCN(C(=O)c2cccc(NC3=NCC(O)CN3)c2)CC1)c1ccc2c(c1)OCO2` (stereo unspecified) came in with an exposure (AUC) in data set [1] of 21.2 µM·h. Further, the 50% inhibitory concentration (IC50) in data set [2] amounted to 1.58 µM; at Integrin alpha-V/beta-3, 0.0017 µM. Moreover, in data set [3], the bioavailability turned out to be 2.6%. Further, the CI in data set [4] came out at 0.04 mg/kg/µM/h. For the same compound, in data set [5], the half-life is 5.4 h.

The compound `COc1ncc(C(CC(=O)O)CC2CCN(C(=O)CCc3ccc4c(n3)NCCC4)CC2)c(OC)n1` (stereo unspecified) showed an AUC in data set [1] of 0.1 µM·h. Moreover, the half-inhibitory concentration (IC50) stood at 0.0046 µM in data set [6] and 0.0015 µM on Integrin alpha-V/beta-3. For the same compound, the bioavailability in data set [3] amounted to 1%. This compound registered a CI in data set [4] of 1 mg/kg/µM/h.
